From patent US5478854A, “Deoxy taxols” (Bristol-Myers Squibb Company, priority 1994, dated 1995)
Where two headings read alike, the source gives them in different places.

Assays:
[1] = tested on: human colon carcinoma cells HCT-116; test: In vitro cytotoxicity (XTT assay), 72 h, HCT-116 human colon carcinoma cells; type: cell-based; details: read-out: IC50, drug concentration required to inhibit cell proliferation to 50% of untreated control
[2] = tested on: human colon carcinoma cells HCT-116/VM46; test: In vitro cytotoxicity (XTT assay), 72 h, HCT-116/VM46 multi-drug resistant cells; type: cell-based; details: for IC50: Homo sapiens, read-out: IC50, drug concentration required to inhibit cell proliferation to 50% of untreated control
[3] = tested on: advanced cases of ovarian, breast, and other cancers; details: NCI trials; cited from earlier work
[4] = HCT-116/VM46 vs HCT-116, value in parentheses, 4320 min
[5] = HCT-116/VM46 (teniposide-selected, multi-drug resistant), XTT, 72 h

| SMILES | IC50 ([1]; HCT-116, 72 h) | IC50 ([1]; HCT-116, XTT, 72 h) | fold resistance relative to HCT116 cells [2, 4] | IC50 [2, 5] | IC50 ([2]; HCT-116/VM46, 72 h) | fold resistance relative to HCT116 cells ([2]; human, hct-116/vm46 vs hct-116, 4320 min) | clinical results in advanced cancers (in words) [3] |
| --- | --- | --- | --- | --- | --- | --- | --- |
| CC(=O)O[C@@]12CO[C@@H]1CC[C@@]1(C)C(=O)CC3=C(C)[C@@H](OC(=O)[C@H](O)[C@@H](NC(=O)OC(C)(C)C)c4ccccc4)C[C@@](O)([C@@H](OC(=O)c4ccccc4)[C@H]21)C3(C)C [Ic, N-Debenzoyl-N-t-butoxycarbonyl-7-deoxy-10-deoxy-10-desacetyloxytaxol] | 12 nM |  |  |  |  |  |  |
| CC(=O)O[C@@]12CO[C@@H]1CC[C@@]1(C)C(=O)CC3=C(C)[C@@H](OC(=O)[C@H](O)[C@@H](NC(=O)c4ccccc4)c4ccccc4)C[C@@](O)([C@@H](OC(=O)c4ccccc4)[C@H]21)C3(C)C [Id, 7-Deoxy-10-desacetyloxytaxol] | 29 nM |  |  |  |  |  |  |
| CC(=O)O[C@H]1C(=O)[C@]2(C)CC[C@H]3OC[C@@]3(OC(C)=O)[C@H]2[C@H](OC(=O)c2ccccc2)[C@]2(O)C[C@H](OC(=O)[C@H](O)[C@@H](NC(=O)c3ccccc3)c3ccccc3)C(C)=C1C2(C)C [Ib, 7-Deoxytaxol] |  | 4 nM | 14 fold | 55 nM |  |  |  |
| CC(=O)O[C@@]12CO[C@@H]1C[C@H](O)[C@@]1(C)C(=O)[C@H](O)C3=C(C)[C@@H](OC(=O)[C@H](O)[C@@H](NC(=O)OC(C)(C)C)c4ccccc4)C[C@@](O)([C@@H](OC(=O)c4ccccc4)[C@H]21)C3(C)C [taxotere, reference compound] |  | 4 nM | 53 fold | 213 nM |  |  |  |
| CC(=O)O[C@H]1C(=O)[C@]2(C)CC[C@H]3OC[C@@]3(OC(C)=O)[C@H]2[C@H](OC(=O)c2ccccc2)[C@]2(O)C[C@H](OC(=O)[C@H](O)[C@@H](NC(=O)OC(C)(C)C)c3ccccc3)C(C)=C1C2(C)C [Ia, N-Debenzoyl-N-t-butoxycarbonyl-7-deoxytaxol] |  | 2 nM | 3.5 fold | 7 nM |  |  |  |
| CC(=O)O[C@H]1C(=O)[C@@]2(C)[C@H]([C@H](OC(=O)c3ccccc3)[C@]3(O)C[C@H](OC(=O)[C@H](O)[C@@H](NC(=O)c4ccccc4)c4ccccc4)C(C)=C1C3(C)C)[C@]1(OC(C)=O)CO[C@@H]1C[C@@H]2O [Taxol] | 4 nM |  |  |  | 440 nM | 124 fold | promising results |
